# Data from patent US20200405697A1, “Antitumor Agent” (Taiho Pharmaceutical Co., Ltd, priority 2017, published 2020).
# Tested on: A549 (Human lung cancer cell line)
# Test: Effect of combination of sulfonamide compound and other antitumor agent (CellTiter-Glo, combination index): A549
# [1] = Example Compound 1 281 nM + Fludarabine nucleoside 5920 nM, molar ratio 1:21.08
# [2] = Example Compound 1 281 nM + Prexasertib 1.97 nM, molar ratio 1:0.007018
# [3] = Example Compound 1 281 nM + SCH900776 908 nM, molar ratio 1:3.232
# [4] = Example Compound 1 422 nM + AZD6738 1040 nM, molar ratio 1:2.455
# [5] = Example Compound 1 422 nM + Cytarabine 108 nM, molar ratio 1:0.2566
# [6] = Example Compound 1 422 nM + Fludarabine nucleoside 8900 nM, molar ratio 1:21.08
# [7] = Example Compound 1 422 nM + Prexasertib 2.96 nM, molar ratio 1:0.007018
# [8] = Example Compound 1 422 nM + SCH900776 1360 nM, molar ratio 1:3.232
# [9] = Example Compound 1 633 nM + AZD6738 1550 nM, molar ratio 1:2.455
# [10] = Example Compound 1 633 nM + Fludarabine nucleoside 13300 nM, molar ratio 1:21.08
# [11] = Example Compound 1 633 nM + Guadecitabine 489 nM, molar ratio 1:0.7725
# [12] = Example Compound 1 633 nM + Prexasertib 4.44 nM, molar ratio 1:0.007018
# [13] = Example Compound 1 633 nM + SCH900776 2050 nM, molar ratio 1:3.232
# [14] = Example Compound 1 949 nM + AZD6738 2330 nM, molar ratio 1:2.455
# [15] = Example Compound 1 949 nM + Azacytidine 2740 nM, molar ratio 1:2.885
# [16] = Example Compound 1 949 nM + Cytarabine 244 nM, molar ratio 1:0.2566
# [17] = Example Compound 1 949 nM + Decitabine 2000 nM, molar ratio 1:2.108
# [18] = Example Compound 1 949 nM + Fludarabine nucleoside 20000 nM, molar ratio 1:21.08
# [19] = Example Compound 1 949 nM + Guadecitabine 733 nM, molar ratio 1:0.7725
# [20] = Example Compound 1 949 nM + Prexasertib 6.66 nM, molar ratio 1:0.007018
# [21] = Example Compound 1 949 nM + SCH900776 3070 nM, molar ratio 1:3.232
# [22] = Example Compound 1 949 nM + Sunitinib 1870 nM, molar ratio 1:1.969
# [23] = Example Compound 1 949 nM + Trifluridine 430 nM, molar ratio 1:0.4535
# [24] = Example Compound 1 1420 nM + 5-Fluorouracil 2700 nM, molar ratio 1:1.900
# [25] = Example Compound 1 1420 nM + AZD6738 3490 nM, molar ratio 1:2.455
# [26] = Example Compound 1 1420 nM + Azacytidine 4100 nM, molar ratio 1:2.885
# [27] = Example Compound 1 1420 nM + Cytarabine 364 nM, molar ratio 1:0.2566
# [28] = Example Compound 1 1420 nM + Decitabine 2990 nM, molar ratio 1:2.108
# [29] = Example Compound 1 1420 nM + Etoposide 3780 nM, molar ratio 1:2.663
# [30] = Example Compound 1 1420 nM + Gemcitabine 8.37 nM, molar ratio 1:0.005895
# [31] = Example Compound 1 1420 nM + Guadecitabine 1100 nM, molar ratio 1:0.7725
# [32] = Example Compound 1 1420 nM + Lapatinib 5990 nM, molar ratio 1:4.216
# [33] = Example Compound 1 1420 nM + Luminespib 13.5 nM, molar ratio 1:0.009473
# [34] = Example Compound 1 1420 nM + Midostaurin 250 nM, molar ratio 1:0.1761
# [35] = Example Compound 1 1420 nM + Olaparib 14800 nM, molar ratio 1:10.40
# [36] = Example Compound 1 1420 nM + Oxaliplatin 1060 nM, molar ratio 1:0.7448
# [37] = Example Compound 1 1420 nM + Sunitinib 2800 nM, molar ratio 1:1.969
# [38] = Example Compound 1 1420 nM + Talazoparib 7980 nM, molar ratio 1:5.617
# [39] = Example Compound 1 1420 nM + Trifluridine 644 nM, molar ratio 1:0.4535
# [40] = Example Compound 1 2140 nM + Cabozantinib […], molar ratio 1:4.216
# [41] = Example Compound 1 2140 nM + Carboplatin 79500 nM, molar ratio 1:37.17
# [42] = Example Compound 1 2140 nM + Cisplatin 9620 nM, molar ratio 1:4.494
# [43] = Example Compound 1 2140 nM + Trifluridine 970 nM, molar ratio 1:0.4535
# [44] = Example Compound 1 3200 nM + Carboplatin 119000 nM, molar ratio 1:37.17
# [45] = Example Compound 1 3200 nM + Cisplatin 14400 nM, molar ratio 1:4.494
# [46] = Example Compound 1 4810 nM + Carboplatin 179000 nM, molar ratio 1:37.17
# Method: Each cell line was seeded at 90 L/well to a 96-well culture plate (Thermo Fisher Scientific, Inc.) according to the above tables. The cell-seeded plate was cultured in an incubator set to 37° C. and 500 CO2. On the day following seeding, varying concentrations of the sulfonamide compound and the other antitumor agent were added in combination to the cells. […] The serial dilutions of each compound, or DW was added at 5μL/well to the plate such that each compound and DW, or the sulfonamide compound and the other antitumor agent were combined. […] The plate after the addition was cultured at 37° C. for 3 days under 5% CO2 conditions.
# Three days later, CellTiter-Glo(R) 2.0 Reagent (Promega Corporation) was added at 100 μL/well, and the amount of luminescence was measured using a plate reader EnSpire(R) Multimode Plate Reader (PerkinElmer Co., Ltd.).
# An average value from 3 wells was calculated as to each drug condition from the obtained data, and cell survival rate normalized against control wells supplemented with the vehicle (DW) was calculated. A Fa (fractional inhibition) value was calculated by subtracting the cell survival rate from 1.
structure (smiles),measurement,setting,value
"Cc1ccc(F)c([C@@H](C)[C@H](NS(=O)(=O)c2ccc(Br)cc2C(N)=O)c2n[nH]c(=O)o2)c1C [Example 1, 5-bromo-2-(N-((1 S,2R)-2-(6-fluoro-2,3-dimethylphenyl)-1-(5-oxo-4,5-dihydro-1,3,4-oxadiazol-2-yl)propyl)sulfamoyl)benzamide]",CI value,[1],0.550
same,Fa value,[1],0.2653
same,CI value,[2],0.349
same,Fa value,[2],0.3570
same,CI value,[3],0.196
same,Fa value,[3],0.6117
same,CI value,[4],0.449
same,Fa value,[4],0.5145
same,CI value,[5],0.770
same,Fa value,[5],0.4482
same,CI value,[6],0.388
same,Fa value,[6],0.6824
same,CI value,[7],0.226
same,Fa value,[7],0.7264
same,CI value,[8],0.195
same,Fa value,[8],0.7479
same,CI value,[9],0.350
same,Fa value,[9],0.7602
same,CI value,[10],0.367
same,Fa value,[10],0.8650
same,CI value,[11],0.471
same,Fa value,[11],0.4374
same,CI value,[12],0.193
same,Fa value,[12],0.8863
same,CI value,[13],0.190
same,Fa value,[13],0.8581
same,CI value,[14],0.315
same,Fa value,[14],0.8849
same,CI value,[15],0.895
same,Fa value,[15],0.5060
same,CI value,[16],0.461
same,Fa value,[16],0.7886
same,CI value,[17],0.501
same,Fa value,[17],0.5507
same,CI value,[18],0.537
same,Fa value,[18],0.8719
same,CI value,[19],0.502
same,Fa value,[19],0.5583
same,CI value,[20],0.288
same,Fa value,[20],0.8866
same,CI value,[21],0.257
same,Fa value,[21],0.8783
same,CI value,[22],0.721
same,Fa value,[22],0.6537
same,CI value,[23],0.890
same,Fa value,[23],0.6005
same,CI value,[24],0.881
same,Fa value,[24],0.6426
same,CI value,[25],0.482
same,Fa value,[25],0.8809
same,CI value,[26],0.676
same,Fa value,[26],0.7364
same,CI value,[27],0.491
same,Fa value,[27],0.8557
same,CI value,[28],0.583
same,Fa value,[28],0.6575
same,CI value,[29],0.772
same,Fa value,[29],0.6999
same,CI value,[30],0.858
same,Fa value,[30],0.8410
same,CI value,[31],0.563
same,Fa value,[31],0.6756
same,CI value,[32],0.480
same,Fa value,[32],0.8412
same,CI value,[33],0.894
same,Fa value,[33],0.7741
same,CI value,[34],0.871
same,Fa value,[34],0.7361
same,CI value,[35],0.761
same,Fa value,[35],0.6398
same,CI value,[36],0.831
same,Fa value,[36],0.7172
same,CI value,[37],0.688
same,Fa value,[37],0.8162
same,CI value,[38],0.661
same,Fa value,[38],0.6630
same,CI value,[39],0.717
same,Fa value,[39],0.8230
same,CI value,[40],0.790
same,Fa value,[40],0.9173
same,CI value,[41],0.632
same,Fa value,[41],0.9198
same,CI value,[42],0.848
same,Fa value,[42],0.9125
same,CI value,[43],0.761
same,Fa value,[43],0.8988
same,CI value,[44],0.502
same,Fa value,[44],0.9734
same,CI value,[45],0.694
same,Fa value,[45],0.9675
same,CI value,[46],0.569
same,Fa value,[46],0.9841
